From ChEMBL document CHEMBL1147471, “Selecting against S1P3 enhances the acute cardiovascular tolerability of 3-(N-benzyl)aminopropylphosphonic acid S1P receptor agonists” (Bioorg Med Chem Lett, 2004)

How the values were obtained:
[1] = in vivo; conditions: rat, plasma, iv, 1 mg/kg
[2] = in vivo; conditions: rat, iv, 1 mg/kg
[3] = in vivo; conditions: rat, iv, 1 mg/kg; remark: listed apart in the source

clearance [1]: 9.2 mL/min/kg | Vd [2]: 1.4 L/kg | half-life [3]: 2.1 h
SMILES: CCCCCCCCOc1c(Br)cc(CNCCCP(=O)(O)O)cc1OC
